From patent US20060003948A1, “Compositions that include a triterpene and a carrier” (priority 2004, published 2006)

Tests used:
M. canis = assay: Agar Dilution Method 2, M. canis; assay type: cell-based; details: 12th day of inoculation
Method: (§1) Sabourand Dextrose Agar was prepared according the manufacturers instructions and 5 ml was dispensed in 100×25 mm tubes and autoclaved for 121° C. for 15 minutes. To each tube containing 5 ml of liquid agar at 45° C., 4 mg/ml of test antifungal compound was added, subsequently each was solidified in […], and inoculated with fungal cultures. After incubation for 10-12 days at 25° C. to 28° C., the growth of the fungus was recorded every second day.

M. audouinii = assay: Agar Dilution Method 2, M. audouinii; assay type: cell-based; details: 12th day of inoculation
Method: as §1

[1] = cited from earlier work
Pityrosporum ovale [2] = assay: Agar Dilution Method 1, Pityrosporum ovale; assay type: cell-based; parameters: key: +++ = Maximum Fungal Growth; ++ = Moderate Fungal Growth; + = Minimum Fungal Growth; +/− = Very little Fungal Growth; − = No Fungal Growth
Method: as §1, with “100 X 25” for “100×25”, “different concentrations” for “4 mg/ml”, “compound in DMSO” for “compound”, “day. The Minimum Inhibitory Concentration (MIC) was determined by the tube containing the lowest concentration of test compound which inhibited fungal growth. See, Table 1.” for “day.”

Microsporum canis = assay: Agar Dilution Method 1, Microsporum canis; assay type: cell-based; parameters: key: +++ = Maximum Fungal Growth; ++ = Moderate Fungal Growth; + = Minimum Fungal Growth; +/− = Very little Fungal Growth; − = No Fungal Growth
Method: as §1, with “100 X 25” for “100×25”, “different concentrations” for “4 mg/ml”, “compound in DMSO” for “compound”, “day. The Minimum Inhibitory Concentration (MIC) was determined by the tube containing the lowest concentration of test compound which inhibited fungal growth. See, Table 1.” for “day.”

Epidermophyton = assay: Agar Dilution Method 1, Epidermophyton; assay type: cell-based; parameters: key: +++ = Maximum Fungal Growth; ++ = Moderate Fungal Growth; + = Minimum Fungal Growth; +/− = Very little Fungal Growth; − = No Fungal Growth
Method: as §1, with “100 X 25” for “100×25”, “different concentrations” for “4 mg/ml”, “compound in DMSO” for “compound”, “day. The Minimum Inhibitory Concentration (MIC) was determined by the tube containing the lowest concentration of test compound which inhibited fungal growth. See, Table 1.” for “day.”

Pityrosporum ovale [3] = assay: Anti-Fungal Activity Against Pityrosporum ovale; assay type: cell-based; details: 4 mg/ml of test compound; 37° C. for 18 to 24 hours
Method: Betulin and its derivatives have low solubility in water, accordingly the stock solution of the test compounds were prepared in DMSO. The stock solutions for griseofulvin and nystatin were prepared in DMSO at a concentration of 10,000 μg/ml. The yeast Pityrosporum ovale (ATCC Rockville, Md.) was grown in Pityrosporum medium (ATCC Rockville, Md.) at 37° C. for 2-3 days. 5 ml of the medium was dispensed in 100×25 mm tubes and autoclaved at 121° C. for 15 minutes. To each tube at 45° C., 4 mg/ml of test compound was added and solidified in […], subsequently, each was inoculated with P. ovale and incubated at 37° C. for 18 to 24 hours.

T. tonsurans = assay: Agar Dilution Method 2, T. tonsurans; assay type: cell-based; details: 12th day of inoculation
Method: as §1

| Molecule | Results using the Agar Dilution Method 2 in concentration, M. canis (M. canis) [µg/mL] | Results using the Agar Dilution Method 2 in concentration, M. audouinii (M. audouinii) [µg/mL] | Fungal Growth Pityrosporum ovale (Pityrosporum ovale [2]; 12.5 μg/ml in DMSO) | Fungal Growth Pityrosporum ovale (Pityrosporum ovale [2]; 25 μg/ml in DMSO) | Fungal Growth Pityrosporum ovale (Pityrosporum ovale [2]; 50 μg/ml in DMSO) | Fungal Growth Pityrosporum ovale (Pityrosporum ovale [2]; 100 μg/ml in DMSO) | Fungal Growth Microsporum canis (Microsporum canis; 12.5 μg/ml in DMSO) | Fungal Growth Microsporum canis (Microsporum canis; 25 μg/ml in DMSO) | Fungal Growth Microsporum canis (Microsporum canis; 50 μg/ml in DMSO) | Fungal Growth Microsporum canis (Microsporum canis; 100 μg/ml in DMSO) | Fungal Growth Epidermophyton (Epidermophyton; 12.5 μg/ml in DMSO) | Fungal Growth Epidermophyton (Epidermophyton; 25 μg/ml in DMSO) | Fungal Growth Epidermophyton (Epidermophyton; 50 μg/ml in DMSO) | Fungal Growth Epidermophyton (Epidermophyton; 100 μg/ml in DMSO) | growth of P. ovale (Pityrosporum ovale [3]) | Results using the Agar Dilution Method 2 in concentration, T. tonsurans (T. tonsurans) [µg/mL] | other results |
| --- | --- | --- | --- | --- | --- | --- | --- | --- | --- | --- | --- | --- | --- | --- | --- | --- | --- |
| C=C(C)[C@@H]1CC[C@]2(CO)CC[C@]3(C)[C@H](CC[C@@H]4[C@@]5(C)CC[C@H](O)C(C)(C)[C@@H]5CC[C@]43C)[C@@H]12 [Betulin] | 50 | 25 | +++ | +++ | ++ | +/− | ++ | + | +/− | − | + | + | − | − |  |  | solubility in water [1]: about 0.15 mg/l |
| C=C(C)C1CCC2(COC(=O)CCCC(=O)O)CCC3(C)C(CCC4C5(C)CCC(O)C(C)(C)C5CCC43C)C12 (stereo not shown) [betulin 28-glutarate] |  |  |  |  |  |  |  |  |  |  |  |  |  |  | inhibited the growth |  |  |
| CC1(C)CCC23CCC4(C)C(CCC5C6(C)CCC(OC(=O)CCCC(=O)O)C(C)(C)C6CCC54C)C2C1OC3 (stereo not shown) [Allobetulin 3-glutarate] | 25 | 9 | +++ | +++ | ++ | − | +/− | +/− | − | − | ++ | + | + | − |  | 25 |  |
| COC1=CC(=O)C[C@@H](C)[C@]12Oc1c(Cl)c(OC)cc(OC)c1C2=O [Griseofulvin, reference compound] | 250 | <125 |  |  |  |  |  |  |  |  |  |  |  |  |  | 250 | Fungal Growth Pityrosporum ovale (Pityrosporum ovale [2]; 125 μg/ml in DMSO): +++; Fungal Growth Pityrosporum ovale (Pityrosporum ovale [2]; 250 μg/ml in DMSO): +++; Fungal Growth Pityrosporum ovale (Pityrosporum ovale [2]; 500 μg/ml in DMSO): ++; Fungal Growth Pityrosporum ovale (Pityrosporum ovale [2]; 1000 μg/ml in DMSO): −; Fungal Growth Microsporum canis (Microsporum canis; 125 μg/ml in DMSO): +/−; Fungal Growth Microsporum canis (Microsporum canis; 250 μg/ml in DMSO): +/−; Fungal Growth Microsporum canis (Microsporum canis; 500 μg/ml in DMSO): −; Fungal Growth Microsporum canis (Microsporum canis; 1000 μg/ml in DMSO): −; Fungal Growth Epidermophyton (Epidermophyton; 125 μg/ml in DMSO): ++; Fungal Growth Epidermophyton (Epidermophyton; 250 μg/ml in DMSO): +; Fungal Growth Epidermophyton (Epidermophyton; 500 μg/ml in DMSO): −; Fungal Growth Epidermophyton (Epidermophyton; 1000 μg/ml in DMSO): − |
| C=C(C)C1CCC2(COC(=O)c3ccccc3C(=O)O)CCC3(C)C(CCC4C5(C)CCC(O)C(C)(C)C5CCC43C)C12 (stereo not shown) [Betulin 28-phthalate] | 50 | 25 | +++ | +++ | ++ | − | ++ | + | − | − | +++ | ++ | + | − |  |  |  |
| allobetulin L-valine ester |  |  |  |  |  |  |  |  |  |  |  |  |  |  | inhibited the growth |  |  |
| C=C(C)[C@@H]1CC[C@]2(COC(=O)CCCC(=O)O)CC[C@]3(C)[C@H](CC[C@@H]4[C@@]5(C)CC[C@H](OC(=O)CCCC(=O)O)C(C)(C)[C@@H]5CC[C@]43C)[C@@H]12 [betulin 3,28-diglutarate] |  |  |  |  |  |  |  |  |  |  |  |  |  |  | inhibited the growth |  |  |
| C[C@@H]1[C@H](O)[C@@H](C)/C=C/C=C/CC/C=C/C=C/C=C/C=C/C(O[C@H]2O[C@H](C)[C@@H](O)[C@H](N)[C@@H]2O)CC2O[C@](O)(CC(O)C(O)CCC(O)CC(O)CC(O)CC(=O)O[C@H]1C)CC(O)C2C(=O)O (stereo partly shown) [Nystatin, reference compound] | 250 | <125 |  |  |  |  |  |  |  |  |  |  |  |  | inhibited | 250 | Fungal Growth Pityrosporum ovale (Pityrosporum ovale [2]; 125 μg/ml in DMSO): +; Fungal Growth Pityrosporum ovale (Pityrosporum ovale [2]; 250 μg/ml in DMSO): +/−; Fungal Growth Pityrosporum ovale (Pityrosporum ovale [2]; 500 μg/ml in DMSO): −; Fungal Growth Pityrosporum ovale (Pityrosporum ovale [2]; 1000 μg/ml in DMSO): −; Fungal Growth Microsporum canis (Microsporum canis; 125 μg/ml in DMSO): +; Fungal Growth Microsporum canis (Microsporum canis; 250 μg/ml in DMSO): +/−; Fungal Growth Microsporum canis (Microsporum canis; 500 μg/ml in DMSO): −; Fungal Growth Microsporum canis (Microsporum canis; 1000 μg/ml in DMSO): −; Fungal Growth Epidermophyton (Epidermophyton; 125 μg/ml in DMSO): +/−; Fungal Growth Epidermophyton (Epidermophyton; 250 μg/ml in DMSO): −; Fungal Growth Epidermophyton (Epidermophyton; 500 μg/ml in DMSO): −; Fungal Growth Epidermophyton (Epidermophyton; 1000 μg/ml in DMSO): − |
| CC1(C)CC[C@]23CC[C@]4(C)[C@H](CC[C@@H]5[C@@]6(C)CC[C@H](O)C(C)(C)[C@@H]6CC[C@]54C)[C@H]2[C@H]1OC3 [Allobetulin] |  |  |  |  |  |  |  |  |  |  |  |  |  |  | inhibited the growth |  | Fungal Growth Pityrosporum ovale (Pityrosporum ovale [2]; 9 μg/ml in DMSO): +++; Fungal Growth Pityrosporum ovale (Pityrosporum ovale [2]; 19 μg/ml in DMSO): +++; Fungal Growth Pityrosporum ovale (Pityrosporum ovale [2]; 38 μg/ml in DMSO): ++; Fungal Growth Pityrosporum ovale (Pityrosporum ovale [2]; 75 μg/ml in DMSO): −; Fungal Growth Microsporum canis (Microsporum canis; 9 μg/ml in DMSO): +++; Fungal Growth Microsporum canis (Microsporum canis; 19 μg/ml in DMSO): ++; Fungal Growth Microsporum canis (Microsporum canis; 38 μg/ml in DMSO): ++; Fungal Growth Microsporum canis (Microsporum canis; 75 μg/ml in DMSO): −; Fungal Growth Epidermophyton (Epidermophyton; 9 μg/ml in DMSO): ++; Fungal Growth Epidermophyton (Epidermophyton; 19 μg/ml in DMSO): +; Fungal Growth Epidermophyton (Epidermophyton; 38 μg/ml in DMSO): +; Fungal Growth Epidermophyton (Epidermophyton; 75 μg/ml in DMSO): − |
